{
  "source": "patent US6610699B2",
  "about": "“Use of L-carnitine and its alkanoyl derivatives in the preparation of medicaments with anticancer activity” (Sigma-Tau Industrie Farmaceutiche Riunite S.p.A., priority 1998, dated 2003)",
  "key": {"Hamsters [1]": {"test_system": "Hamsters", "assay": "Bleomycin-induced pulmonary toxicity in hamsters: lung histology", "assay_type": "in vivo, hamster", "conditions": "pre-treatment/IT instillation; day 22", "protocol": "(§1) Hamsters weighing 120 g were treated with bleomycin (1 unit) by the intratracheal route (IT) or with an equivalent volume of saline. In addition, the animals were pre-treated with ALC (200 mg/kg) or saline intraperitoneally just before the instillation of bleomycin, followed by daily injections for 1 week. The animals were allowed 3 weeks to recover prior to taking the tissue samples. At the time tissue samples were taken (day 22), one lung of each animal was prepared for histological investigation and the other lung for quantitative determination of hydroxyproline.\nThe lungs were fixed by insufflation at 20 cm of H2O ex vivo with 10% formaldehyde in PBS (pH 7), embedded in paraffin, sectioned and stained with haematoxylin/eosin. Sections with similar orientation from the portion of the pulmonary lobe—upper, middle and lower, respectively—were examined to verify the presence and degree of inflammatory infiltrate, oedema and interstitial and intra-alveolar fibrosis."}, "Hamsters [2]": {"test_system": "Hamsters", "assay": "Bleomycin-induced pulmonary toxicity in hamsters: lung hydroxyproline content", "assay_type": "in vivo, hamster", "conditions": "pre-treatment i.p. (ALC 200 mg/kg or saline, daily 1 week)/intratracheal instillation (bleomycin 1 unit or saline); day 22", "protocol": "as §1\nThe hydroxyproline content (one of the main constituents of collagen) was measured using the known Woessner method. Lung samples were homogenised, hydrolysed with NaOH, and then left to oxidise before adding Erlich aldehyde reagent. Duplicate aliquots of each sample were assayed by spectrophotometry and compared with a standard calibration curve obtained with purified hydroxyproline. The hydroxyproline content (HYP) is expressed as mg/lung."}, "[3]": {"test_system": "L-MM3 murine breast cancer cells", "assay": "L-MM3 murine breast cancer in Balb/c mice, taxol and PLC, Experiment A (schedule A)", "quoted_text": "(§2) Cell cultures of L-MM3 murine breast cancer cells were used, cultured at 37° C. in plastic flasks in a humidified atmosphere with 5% CO^2. The cells were grown in DMEM supplemented with 10% FCS and in the presence of 2 mM L-glutamine and 80 μg/ml of gentamicin. The subconfluent cells were collected during the exponential growth phase using trypsin-EDTA and re-suspended in DMEM. They were then injected subcutaneously in female Balb/c mice weighing 20 g at a density of 4×10^5.\n(§3) The tumour was measured with a calliper three times a week as soon as it became palpable. The tumour mass is calculated on the basis of the measurements of the two dimensions (length and width), expressed in mm, according to the following formula: [formula]\n(§4) If we consider conventionally a tumour density equal to 1, the result is that the tumour volume is equal to (mm^3=mg).\n(§5) The agent is weighed, solubilised in the specific vehicle (12 mg/ml), and stored at +4° C., sheltered from the light. At the time of use, it is diluted 1:4 with saline solution in phosphate buffer (PBS, SIGMA) and injected.\n(§6) Cremophor is diluted 1:1 with ethanol and stored sheltered from the light. On the day of treatment it is diluted 1:4 with PBS."}, "[4]": {"test_system": "L-MM3 murine breast cancer cells", "assay": "L-MM3 murine breast cancer in Balb/c mice, taxol and PLC, Experiment B (schedule B)", "quoted_text": "as §2, §3, §4, §5, §6"}},
  "data": [
    {"compound": "bleomycin [Saline/bleomycin, reference compound]", "values": [
      {"measurement": "lung histology (in words)", "setting": "Hamsters [1]", "value": "dense fibrosis, alveolar atelectasis and oedema"},
      {"measurement": "hydroxyproline content (HYP)", "setting": "Hamsters [2]", "value": 1.831, "unit": "mg/lung"}
    ]},
    {"compound": "CCC(=O)O[C@H](CC(=O)[O-])C[N+](C)(C)C", "note": "[PLC, propionyl L-carnitine]", "values": [
      {"measurement": "Animals with tumours/total number of animals, Day 22", "setting": "[3]", "value": "6/12"},
      {"measurement": "Animals with tumours/total number of animals, Day 25", "setting": "[3]", "value": "9/12"},
      {"measurement": "Animals with tumours/total number of animals, Day 28", "setting": "[3]", "value": "11/12"},
      {"measurement": "Animals with tumours/total number of animals, Day 36", "setting": "[3]", "value": "12/12"},
      {"measurement": "Animals with tumours/total number of animals, Day 46", "setting": "[3]", "value": "12/12"},
      {"measurement": "Tumour size, Day 22", "setting": "[3]", "value": "0.6 ± 0.3"},
      {"measurement": "Tumour size, Day 25", "setting": "[3]", "value": "1.2 ± 0.38"},
      {"measurement": "Tumour size, Day 28", "setting": "[3]", "value": "3 ± 0.4"},
      {"measurement": "Tumour size, Day 36", "setting": "[3]", "value": "9.5 ± 0.8"},
      {"measurement": "Tumour size, Day 46", "setting": "[3]", "value": "15 ± 1.1"},
      {"measurement": "Tumour size, Day 0", "setting": "[3]; day of inoculation", "value": 0},
      {"measurement": "Animals with tumours/total number of animals, Day 19", "setting": "[3]; taxol 30 mg/kg i.p. days 15,17,19,21, PLC 100 mg/kg s.c. days 12-24", "value": "4/12"},
      {"measurement": "Animals with tumours/total animals, Day 45", "setting": "[4]", "value": "8/10"},
      {"measurement": "Animals with tumours/total animals, Day 59", "setting": "[4]", "value": "8/10"},
      {"measurement": "Tumour size, Day 26", "setting": "[4]", "value": "0.4 ± 0.3"},
      {"measurement": "Tumour size, Day 31", "setting": "[4]", "value": "0.5 ± 0.3"},
      {"measurement": "Tumour size, Day 37", "setting": "[4]", "value": "1.3 ± 0.6"},
      {"measurement": "Tumour size, Day 41", "setting": "[4]", "value": "2.2 ± 1.0"},
      {"measurement": "Tumour size, Day 45", "setting": "[4]", "value": "3.9 ± 1.2"},
      {"measurement": "Tumour size, Day 53", "setting": "[4]", "value": "5.6 ± 1.4"},
      {"measurement": "Tumour size, Day 59", "setting": "[4]", "value": "8 ± 2.2"},
      {"measurement": "Tumour size, Day 0", "setting": "[4]; day of inoculation", "value": 0},
      {"measurement": "Animals with tumours/total animals, Day 31", "setting": "[4]; taxol 30 mg/kg i.p. days 8,10,12,14, PLC 100 mg/kg s.c. to day 59", "value": "3/10"}
    ]}
  ]
}
